This note sets out measurements from ChEMBL document CHEMBL2203176, “Structure-based bioisosterism design, synthesis and biological evaluation of novel 1,2,4-triazin-6-ylthioacetamides as potent HIV-1 NNRTIs” (Bioorg Med Chem Lett, 2012).

Series [1] deals with Human immunodeficiency virus 1. Put plainly: Ratio of dideoxycytidine EC50 to compound EC50 for HIV1 3B. It is filed as functional.
A short description of series [2]: Selectivity index, ratio of CC50 for human MT4 cells to EC50 for HIV1 RES056 harboring reverse transcriptase K103N/Y181C mutant. It is filed as toxicity, cell-based. The conditions noted are these: read-out: Ratio CC50/EC50.
Series [3] relates to Human immunodeficiency virus 1. Put plainly: Ratio of nevirapine EC50 to compound EC50 for HIV1 3B. The series is classed as functional.
Series [4] concerns Human immunodeficiency virus 1. In words: Ratio of delavirdine EC50 to compound EC50 for HIV1 3B. The series is classed as functional.
The nature of series [5]: Selectivity index, ratio of CC50 for human MT4 cells to EC50 for HIV1 3B. The series is classed as toxicity, cell-based. The conditions noted are these: read-out: Ratio CC50/EC50.
Series [6] concerns Human immunodeficiency virus 1. In words: Antiviral activity against HIV1 RES056 harboring reverse transcriptase K103N/Y181C mutant infected in human MT4 cells assessed as inhibition of virus-induced cytopathicity by MTT assay. The series is classed as functional, organism-based. The conditions noted are these: Human immunodeficiency virus 1, RES056, MT4. For orientation: Cytopathic effects are the visible damage that an infection or toxin causes in cultured cells.

Series [7] relates to Human immunodeficiency virus 1. In words: Antiviral activity against HIV1 3B infected in human MT4 cells assessed as inhibition of virus-induced cytopathicity by MTT assay. It is filed as functional, organism-based. The conditions noted are these: Human immunodeficiency virus 1, 3B.
The nature of series [8]: Selectivity index, ratio of CC50 for human MT4 cells to EC50 for HIV2 ROD. It is filed as toxicity, cell-based. The conditions noted are these: read-out: Ratio CC50/EC50.
Series [9] concerns Human immunodeficiency virus 2. Put plainly: Antiviral activity against HIV2 ROD infected in human MT4 cells assessed as inhibition of virus-induced cytopathicity by MTT assay. The series is classed as functional, organism-based. The conditions noted are these: Human immunodeficiency virus 2, ISOLATE ROD.
Series [10] is described as follows: Cytotoxicity against human MT4 cells by MTT assay. The series is classed as cell-based. Background: Tetrazolium assays rely on reduction of a dye to a coloured formazan, in cell work by metabolically active cells.
The target in series [11] is Human immunodeficiency virus type 1 reverse transcriptase (Human immunodeficiency virus 1, UniProt Q72547). In words: Inhibition of HIV1 reverse transcriptase assessed as biotin-dUTP incorporation into enzyme using […] as template primer by colorimetric analysis.

In general, EC50 refers to the concentration that produces a half-maximal response. The CC50 is the concentration giving 50% cytotoxicity. On to `NS(=O)(=O)c1ccc(NC(=O)CSc2nncnc2-c2cccc3ccccc23)c(Br)c1`, for which the “Ratio EC50” value came to 78 in [1], 11 in series [3] and 2 in [4]. Further, the selectivity ratio is 7 in series [2], 1290 in series [5] and under 1 in series [8]. The EC50 in series [6] is 3.3 µM; in series [7], 0.018 µM; in series [9], over 23 µM. In series [10], it took 23 µM to reach half-maximal cytotoxicity (CC50).

`O=C(CSc1nncnc1-c1ccccc1Cl)Nc1cccnc1Cl`: the selectivity ratio is 7 in series [2], 2240 in series [5] and under 1 in [8]. Also, the values for the EC50 in [6], in series [7] and in series [9] were 23 µM, 0.074 µM and over 167 µM, respectively. Further, in series [10], the CC50 came out at 167 µM.

In the case of `O=C(CSc1nncnc1-c1ccccc1Cl)Nc1ccc(Cl)cc1Cl`, the selectivity ratio in series [2] was under 1; in series [5], 190; in series [8], under 1. Besides, the figures for the EC50 in series [6], in series [7] and in series [9] were over 51 µM, 0.258 µM and over 51 µM, respectively. The CC50 in series [10] stood at 51 µM.

On to `Cc1ccccc1NC(=O)CSc1nncnc1-c1ccccc1Cl`, for which the selectivity ratio in series [2] was under 1; in series [5], 465; in series [8], under 1. Moreover, the EC50 in series [6] was over 142 µM; in series [7] it was 0.297 µM; in series [9], over 142 µM. In series [10], this compound yielded a cytotoxic concentration (CC50) of 142 µM.

With `COC(=O)c1ccc(NC(=O)CSc2nncnc2-c2ccccc2Cl)c(Br)c1`, the selectivity ratio in series [2] is under 1; in series [5], 311; in series [8], under 1. Also, the values for the EC50 in series [6], in [7] and in series [9] were over 59 µM, 0.19 µM and over 59 µM, respectively. The compound also showed a CC50 in series [10] of 59 µM.

In the case of `CCOC(=O)c1ccc(NC(=O)CSc2nncnc2-c2ccccc2Cl)c(Br)c1`, the selectivity ratio in series [2] was under 1; in series [5] it was 302; in series [8], under 1. For the same compound, the EC50 in series [6] is over 69 µM; in [7], 0.236 µM; in [9] it was over 69 µM. Further, it took 69 µM to reach half-maximal cytotoxicity in series [10] (CC50).

As for `O=C(CSc1nncnc1-c1ccccc1Cl)Nc1ccccn1`, the selectivity ratio in [2] is under 1; in series [5], 51; in series [8], under 1. The results for the EC50 in series [6], in [7] and in series [9] were over 123 µM, 3.3 µM and over 123 µM, respectively. The CC50 in series [10] came to 172 µM.

On to `COC(=O)c1sccc1NC(=O)CSc1nncnc1-c1ccccc1Cl`, for which the selectivity ratio in series [2] is under 1; in series [5] it was 35; in [8], under 1. Also, the EC50 in series [6] was over 105 µM; in series [7], 2.9 µM; in series [9], over 105 µM. The compound also displayed a CC50 in [10] of 105 µM.

For `O=C(CSc1nncnc1-c1ccccc1Cl)N1CCc2ccccc2C1`, the selectivity ratio in series [2] is under 1; in series [5] it was at least 52; in series [8], over 1. In addition, the figures for the EC50 in series [6], in series [7] and in series [9] were at least 43 µM, 0.731 µM and over 38 µM, respectively. In [10], the half-maximal cytotoxic concentration (CC50) is at least 38 µM.

Turning to `O=C(CSc1nncnc1-c1cccc2ccccc12)Nc1ccccc1`, the selectivity ratio in series [2] is under 1; in series [5], 101; in series [8] it was under 1. Also, the EC50 is over 154 µM in series [6], 1.53 µM in series [7] and over 154 µM in [9]. The CC50 in series [10] was 154 µM.

Regarding `O=C(CSc1nncnc1-c1cccc2ccccc12)Nc1ccccc1Cl`, the figures for the selectivity ratio in [2], in [5] and in series [8] were under 1, 470 and under 1, respectively. For the same compound, the EC50 in [6] was over 63 µM; in series [7] it was 0.135 µM; in series [9], over 63 µM. The same compound showed a half-maximal cytotoxic concentration (CC50) in series [10] of 63 µM.

In the case of `O=C(CSc1nncnc1-c1cccc2ccccc12)Nc1ccccc1F`, the selectivity ratio in series [2] is under 1; in [5] it was 184; in series [8], under 1. Besides, the half-maximal effective concentration (EC50) in series [6] is over 65 µM; in [7], 0.359 µM; in [9], over 65 µM. The compound further displayed a CC50 in series [10] of 65 µM.

Turning to `O=C(CSc1nncnc1-c1ccccc1Cl)Nc1ccccc1`, the selectivity ratio in series [2] is under 1; in series [5], 296; in series [8], under 1. Further, the values for the EC50 in series [6], in series [7] and in [9] were over 127 µM, 0.42 µM and over 127 µM, respectively. This compound gave a CC50 in series [10] of 127 µM.

Turning to `O=C(CSc1nncnc1-c1ccccc1Cl)Nc1ccccc1F`, the selectivity ratio is under 1 in series [2], 471 in [5] and under 1 in series [8]. Besides, the figures for the EC50 in [6], in [7] and in series [9] were over 98 µM, 0.21 µM and over 98 µM, respectively. The compound also registered a CC50 in series [10] of 98 µM.

On to `O=C(CSc1nncnc1-c1ccccc1Cl)Nc1ccccc1Br`, for which the selectivity ratio in series [2] was at most 1; in series [5], 792; in [8], under 1. Moreover, the EC50 in series [6] is at least 55 µM; in series [7], 0.092 µM; in series [9], over 73 µM. In addition, the midpoint of cytotoxicity in series [10], the CC50, lay at 73 µM.

On to `Cc1ccc(NC(=O)CSc2nncnc2-c2ccccc2Cl)c(Br)c1`, for which the selectivity ratio in [2] was at most 1; in series [5] it was 253; in series [8], under 1. The EC50 was at least 42 µM in series [6], 0.178 µM in [7] and over 45 µM in series [9]. Besides, the CC50 in [10] was determined as 45 µM.

As usually defined, the IC50 is the midpoint of a concentration-inhibition curve. As to `Cc1ccc(NC(=O)CSc2nncnc2-c2ccccc2Cl)c([N+](=O)[O-])c1`, the figures for the selectivity ratio in series [2], in series [5] and in series [8] were at most 1, 3330 and under 1, respectively. The IC50 in series [11] was found to be 18 µM. Besides, the EC50 in series [6] is at least 22 µM; in [7], 0.048 µM; in [9], over 158 µM. Moreover, the CC50 in series [10] is 158 µM.

On to `O=C(CSc1nncnc1-c1ccccc1Cl)Nc1ccccc1[N+](=O)[O-]`, for which the figures for the selectivity ratio in series [2], in series [5] and in [8] were at most 6, 2160 and under 1, respectively. Also, the IC50 in series [11] was 6.5 µM. Moreover, the EC50 is at least 11 µM in series [6], 0.023 µM in [7] and over 63 µM in series [9]. In [10], it took 63 µM to reach half-maximal cytotoxicity (CC50).

Regarding `CC(=O)c1ccc(NC(=O)CSc2nncnc2-c2ccccc2Cl)c(Br)c1`, the selectivity ratio in [2] is under 1; in series [5], 404; in [8], under 1. Moreover, the results for the EC50 in [6], in series [7] and in series [9] were over 34 µM, 0.086 µM and over 35 µM, respectively. In [10], the CC50 was found to be 34 µM.
